In ChEMBL document CHEMBL1938320, “Biological evaluation and docking studies of recently identified inhibitors of phosphoinositide-3-kinases” (Bioorg Med Chem Lett, 2012):
Calls of active or inactive are those of the source. The rule behind the calls is not given here.

Columns and labels:
HCT-116 [1] = test: Growth inhibition of human HCT116 cells overexpressing PI3Kalpha after 48 hrs by MTT assay; format: functional, cell-based; conditions: HCT-116, 48 h
HCT-116 [2] = test: Growth inhibition of human HCT116 cells overexpressing PI3Kalpha H1047R mutant after 48 hrs by MTT assay; format: functional, cell-based; conditions: HCT-116, 48 h
[3] = target: Phosphatidylinositol 4,5-bisphosphate 3-kinase catalytic subunit alpha isoform (Homo sapiens) (UniProt P42336); test: Inhibition of PI3Kalpha in human HCT116 cells using [32P]ATP at 25 uM after 10 mins; format: cell-based; conditions: HCT-116
[4] = system: Phosphatidylinositol 4,5-bisphosphate 3-kinase catalytic subunit alpha isoform (Homo sapiens), P42336 [H1047R]; test: Inhibition of PI3Kalpha H1047R mutant in human HCT116 cells using [32P]ATP at 25 uM after 10 mins; format: cell-based; conditions: HCT-116
[5] = target: Phosphatidylinositol 4,5-bisphosphate 3-kinase catalytic subunit alpha isoform (Homo sapiens) (UniProt P42336); test: Inhibition of PI3Kalpha in human HCT116 cells assessed as inhibition of Akt Ser473 phosphorylation at 25 uM by immunoblot analysis; format: cell-based; conditions: HCT-116
[6] = system: Phosphatidylinositol 4,5-bisphosphate 3-kinase catalytic subunit alpha isoform (Homo sapiens), P42336 [H1047R]; test: Inhibition of PI3Kalpha H1047R mutant in human HCT116 cells assessed as inhibition of Akt Ser473 phosphorylation at 25 uM by immunoblot analysis; format: cell-based; conditions: HCT-116
HCT-116 [7] = test: Inhibition of Akt expression in human HCT116 cells at 10 uM by immunoblot analysis; format: functional, cell-based
HCT-116 [8] = test: Induction of apoptosis in human HCT116 cells assessed DNA fragmentation at 25 uM after 48 hrs by ELISA relative to control; format: functional
HCT-116 [9] = test: Induction of apoptosis in human HCT116 cells overexpressing PI3Kalpha assessed DNA fragmentation at 25 uM after 48 hrs by ELISA relative to control; format: functional
HCT-116 [10] = test: Induction of apoptosis in human HCT116 cells overexpressing PI3Kalpha H1047R mutant assessed DNA fragmentation at 25 uM after 48 hrs by ELISA relative to control; format: functional
HCT-116 [11] = test: cells; conditions: Homo sapiens, HCT-116, 48 h
Description: Growth inhibition of human HCT116 cells after 48 hrs by MTT assay

[12] = target: Phosphatidylinositol 4,5-bisphosphate 3-kinase catalytic subunit alpha isoform (Homo sapiens) (UniProt P42336); test: Inhibition of PI3Kalpha in human HCT116 cells using [32P]ATP at 10 uM after 10 mins; format: cell-based; conditions: HCT-116
[13] = system: Phosphatidylinositol 4,5-bisphosphate 3-kinase catalytic subunit alpha isoform (Homo sapiens), P42336 [H1047R]; test: Inhibition of PI3Kalpha H1047R mutant in human HCT116 cells using [32P]ATP at 10 uM after 10 mins; format: cell-based; conditions: HCT-116
[14] = target: Phosphatidylinositol 4,5-bisphosphate 3-kinase catalytic subunit alpha isoform (Homo sapiens) (UniProt P42336); test: Inhibition of PI3Kalpha in human HCT116 cells assessed as inhibition of Akt Ser473 phosphorylation at 10 uM by immunoblot analysis; format: cell-based; conditions: HCT-116
[15] = system: Phosphatidylinositol 4,5-bisphosphate 3-kinase catalytic subunit alpha isoform (Homo sapiens), P42336 [H1047R]; test: Inhibition of PI3Kalpha H1047R mutant in human HCT116 cells assessed as inhibition of Akt Ser473 phosphorylation at 10 uM by immunoblot analysis; format: cell-based; conditions: HCT-116

Chain of Phosphatidylinositol 4,5-bisphosphate 3-kinase catalytic subunit alpha isoform (Homo sapiens), P42336 [H1047R] (P42336 whole entry H1047R, canonical isoform): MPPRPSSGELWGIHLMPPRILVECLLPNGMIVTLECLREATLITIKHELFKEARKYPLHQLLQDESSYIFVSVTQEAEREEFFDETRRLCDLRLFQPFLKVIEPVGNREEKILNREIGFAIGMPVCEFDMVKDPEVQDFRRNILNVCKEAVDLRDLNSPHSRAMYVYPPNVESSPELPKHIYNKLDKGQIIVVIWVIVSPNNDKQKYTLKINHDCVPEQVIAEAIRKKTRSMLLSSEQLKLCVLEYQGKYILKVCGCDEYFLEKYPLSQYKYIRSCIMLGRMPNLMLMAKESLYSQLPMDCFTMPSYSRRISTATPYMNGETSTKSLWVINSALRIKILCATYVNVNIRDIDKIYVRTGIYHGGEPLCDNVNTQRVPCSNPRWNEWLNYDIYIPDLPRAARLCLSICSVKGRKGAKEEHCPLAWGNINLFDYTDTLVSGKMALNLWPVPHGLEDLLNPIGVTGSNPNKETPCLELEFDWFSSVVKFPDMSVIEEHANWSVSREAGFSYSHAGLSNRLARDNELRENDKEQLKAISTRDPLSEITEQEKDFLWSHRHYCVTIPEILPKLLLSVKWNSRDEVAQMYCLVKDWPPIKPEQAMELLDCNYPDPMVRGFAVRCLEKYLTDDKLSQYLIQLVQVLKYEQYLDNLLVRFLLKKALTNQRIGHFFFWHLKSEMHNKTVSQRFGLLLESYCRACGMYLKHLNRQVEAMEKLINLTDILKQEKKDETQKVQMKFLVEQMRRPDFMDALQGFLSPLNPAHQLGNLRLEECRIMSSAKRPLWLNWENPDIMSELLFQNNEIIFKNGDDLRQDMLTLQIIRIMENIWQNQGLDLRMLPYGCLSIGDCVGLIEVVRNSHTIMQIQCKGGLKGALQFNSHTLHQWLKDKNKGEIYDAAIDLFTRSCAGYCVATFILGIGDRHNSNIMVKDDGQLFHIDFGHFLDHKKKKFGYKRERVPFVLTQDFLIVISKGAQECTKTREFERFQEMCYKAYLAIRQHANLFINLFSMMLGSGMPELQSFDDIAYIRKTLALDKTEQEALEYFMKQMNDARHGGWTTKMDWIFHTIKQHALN
Chain of Phosphatidylinositol 4,5-bisphosphate 3-kinase catalytic subunit alpha isoform (Homo sapiens) (P42336 whole entry, canonical isoform): as the sequence (P42336 whole entry H1047R, canonical isoform) above, with R1047H counted along it

Q: For `O=C(NCc1ccccc1)c1c(O)nc2ccccc2c1O`, which IC50 (HCT-116 [1]) is on record?
A: 1.1 µM

Q: What about the IC50 (HCT-116 [2]) of the same compound?
A: 0.73 µM

Q: What about the inhibition [3] of the same compound?
A: Active

Q: And the inhibition [4]?
A: Active

Q: And the inhibition [5]?
A: Active

Q: What about the inhibition [6] of the same compound?
A: Active

Q: And the inhibition (HCT-116 [7])?
A: inactive

Q: What about the “fold change (FC)” value (HCT-116 [8]) of the same compound?
A: 2.9

Q: And the “fold change (FC)” value (HCT-116 [9])?
A: 3.2

Q: And the “fold change (FC)” value (HCT-116 [10])?
A: 11

Q: What about the IC50 (HCT-116 [11]) of the same compound?
A: 1.8 µM

Q: `COc1ccc(C(=O)c2ccccc2C(=O)O)c(O)c1` was tested. Which IC50 (HCT-116 [1]) did it give?
A: 31 µM

Q: What about the IC50 (HCT-116 [2]) of the same compound?
A: 18 µM

Q: And the inhibition [3]?
A: Active

Q: What about the inhibition [4] of the same compound?
A: Active

Q: And the inhibition [5]?
A: Active

Q: What about the inhibition [6] of the same compound?
A: Active

Q: And the inhibition (HCT-116 [7])?
A: inactive

Q: What about the “fold change (FC)” value (HCT-116 [8]) of the same compound?
A: 1.8

Q: What about the “fold change (FC)” value (HCT-116 [9]) of the same compound?
A: 1.3

Q: What about the “fold change (FC)” value (HCT-116 [10]) of the same compound?
A: 3

Q: And the IC50 (HCT-116 [11])?
A: 13 µM

Q: Which IC50 (HCT-116 [1]) does the source give for `Cc1cc(O)c2c(c1)C(=O)c1cc(O)cc(O)c1C2=O` [EMODIN] here?
A: 5.3 µM

Q: And the IC50 (HCT-116 [2])?
A: 3.8 µM

Q: And the inhibition [12]?
A: Active

Q: What about the inhibition [13] of the same compound?
A: Active

Q: And the inhibition [14]?
A: Active

Q: What about the inhibition [15] of the same compound?
A: Active

Q: And the inhibition (HCT-116 [7])?
A: Active

Q: And the “fold change (FC)” value (HCT-116 [8])?
A: 8.6

Q: And the “fold change (FC)” value (HCT-116 [9])?
A: 12

Q: What about the “fold change (FC)” value (HCT-116 [10]) of the same compound?
A: 13

Q: What about the IC50 (HCT-116 [11]) of the same compound?
A: 6.2 µM

Q: What does the source list for `O=c1cc(N2CCOCC2)oc2c(-c3ccccc3)cccc12` [LY-294002]?
A: inhibition [12]: Active; inhibition [13]: Active; inhibition [14]: Active; inhibition [15]: Active; inhibition (HCT-116 [7]): inactive; fold change (FC) (HCT-116 [8]): 3.8; fold change (FC) (HCT-116 [9]): 8.5; fold change (FC) (HCT-116 [10]): 8.6

Q: Which inhibition [3] does the source give for `O=c1c(O)c(-c2cc(O)c(O)c(O)c2)oc2cc(O)cc(O)c12` [MYRICETIN] here?
A: Active

Q: And the inhibition [4]?
A: Active

Q: And the inhibition [5]?
A: Active

Q: What about the inhibition [6] of the same compound?
A: Active

Q: What about the inhibition (HCT-116 [7]) of the same compound?
A: inactive

Q: How did the IC50 (HCT-116 [1]) turn out when `O=c1c(O)c(-c2ccc(O)c(O)c2)oc2cc(O)cc(O)c12` [QUERCETIN] was run?
A: 23 µM

Q: And the IC50 (HCT-116 [2])?
A: 5.7 µM

Q: And the inhibition [3]?
A: Active

Q: And the inhibition [4]?
A: Active

Q: And the inhibition [5]?
A: Active

Q: And the inhibition [6]?
A: Active

Q: And the inhibition (HCT-116 [7])?
A: inactive

Q: And the “fold change (FC)” value (HCT-116 [8])?
A: 1

Q: What about the “fold change (FC)” value (HCT-116 [9]) of the same compound?
A: 2.5

Q: And the “fold change (FC)” value (HCT-116 [10])?
A: 4

Q: And the IC50 (HCT-116 [11])?
A: 6.7 µM
